Test results reported in patent US20190255022A1, “WOUND-HEALING AGENT” (NIPPON CHEMIPHAR CO., LTD., priority 2016, published 2019).

System: rat pressure ulcer model
Assay: Effect of compound A in rat pressure ulcer model
Type: in vivo
Settings: for Number of days required for healing: 150 mg once a day until healing; for Number of days required for healing / wound area ratio: mean±standard error; for wound area ratio: 150 mg once a day
Description: The compound A was weighed in the required amount, and polyethylene glycol 400 (PEG400) was added to the compound to prepare liquids having final concentrations of the compound of 0.01, 0.1, and 1.0 w/v %. In order to prepare ointments having final concentrations of the compound of 0.005, 0.05, and 0.5 w/w %, PEG4000 melted by warming at 65° C. was added to the liquids, and the liquids were stirred until they solidified at room temperature to prepare ointments having concentrations of the compound of 0.005, 0.05, and 0.5 w/w %.
Pentobarbital sodium was intraperitoneally administered (50 mg/kg) to 8 weeks old Slc:SD rats, of which skins on the right third trochanter had been broadly depilated beforehand using an electric clipper and an electric shaver, 20 mg/kg of allobarbital was further intraperitoneally administered to anesthetize the rats, and the animals were fixed on wooden fixation plates in the prone position. Absorbent cotton was inserted between the femoral region and the fixation plate as a cushion, and a stainless steel bar (diameter 19 mm, length 50 cm) having a weight of 1.02 to 1.03 kg and attached with a rubber stopper (diameter 12 mm) was placed on the skin over the right third trochanter to give a pressure load (902.3 to 911.2 g/cm^2) for 24 hours^5). After 24 hours, the pressure load was eliminated, a 5% glucose solution was orally administered to the rats, and two days after the elimination of the pressure load, the necrotic skin was surgically removed under isoflurane anesthesia to prepare a pressure ulcer model. As for the methods of the experiments, Hidetoshi Hamamoto et al., Clinical Pharmacology and Therapy (Yakuri to Rinsho), 15:255-262, 2005, Effect of MRX-201 on Wound Healing Dermal Burns and Decubitus Ulcer in Rat was referred to.
After the preparation of the pressure ulcer model, the administration was performed once a day at a dose of 150 mg until healing was completed. The wound surface was cleaned with absorbent cotton dipped in physiological saline before the administration, and the ointment was applied to the whole wound surface with a spatula.
Wound area was measured once a day after the start of the administration of the test substance until healing was completed. By using the measured wound area, wound area ratio (%) based on the wound area before the start of the administration was calculated. The number of days of the period from the start of the administration to healing was calculated as number of days required for healing.
Homoscedasticity was examined by the Bartlett's method. When homoscedastic results were obtained, one-way layout analysis of variance was further performed, and when significant results were obtained, mean values were compared by the Tukey's method. When heteroscedastic results were obtained, Kruskal-Wallis H-test was performed, and when significant results were obtained, mean ranks were compared by the Tukey's method. For the Bartlett's method, one-way analysis of variance, and Kruskal-Wallis H-test, the statistical significance level was set at 5%, and for the Tukey's method, the statistical significance level was set at 5% and 1%.

Cc1cc2c(CCc3sc(-c4ccc(C(F)(F)F)cc4)nc3C(C)C)noc2cc1OCC(=O)O [compound A, [3-[2-[4-isopropyl-2-(4-trifluoromethyl)phenyl-5-thiazolyl]ethyl]-5-methyl-1,2-benzisoxazol-6-yl]oxyacetic acid]
number of the days required for healing compared with the vehicle-administered group (0.005% and 0.05% compound A-administered groups): significantly decreased
Number of days required for healing (0.005% compound A ointment, n=10): 20.1 ± 1.4 days
wound area ratio (0.005% compound A ointment, day 1 of administration, n=10): 100.0 ± 0.0%
wound area ratio (0.005% compound A ointment, day 2 of administration, n=10): 108.3 ± 3.1%
wound area ratio (0.005% compound A ointment, day 3 of administration, n=10): 108.9 ± 3.9%
wound area ratio (0.005% compound A ointment, day 4 of administration, n=10): 99.9 ± 3.5 %
wound area ratio (0.005% compound A ointment, day 5 of administration, n=10): 92.1 ± 3.7 %
wound area ratio (0.005% compound A ointment, day 6 of administration, n=10): 76.4 ± 5.5 %
wound area ratio (0.005% compound A ointment, day 7 of administration, n=10): 66.4 ± 4.7 %
wound area ratio (0.005% compound A ointment, day 8 of administration, n=10): 55.2 ± 4.8 %
wound area ratio (0.005% compound A ointment, day 9 of administration, n=10): 45.3 ± 4.3 %
wound area ratio (0.005% compound A ointment, day 10 of administration, n=10): 39.4 ± 4.1 %
wound area ratio (0.005% compound A ointment, day 11 of administration, n=10): 31.5 ± 3.3 %
wound area ratio (0.005% compound A ointment, day 12 of administration, n=10): 23.8 ± 2.4 %
wound area ratio (0.005% compound A ointment, day 13 of administration, n=10): 19.6 ± 2.3 %
wound area ratio (0.005% compound A ointment, day 14 of administration, n=10): 14.4 ± 2.5 %
wound area ratio (0.005% compound A ointment, day 15 of administration, n=10): 10.3 ± 2.1%
wound area ratio (0.005% compound A ointment, day 16 of administration, n=10): 7.1 ± 1.8 %
wound area ratio (0.005% compound A ointment, day 17 of administration, rats except for the healed rats): 4.4 ± 1.5 %
wound area ratio (0.005% compound A ointment, day 18 of administration, rats except for the healed rats): 4.9 ± 1.6^ %
wound area ratio (0.005% compound A ointment, day 19 of administration, rats except for the healed rats): 3.3 ± 1.5 %
wound area ratio (0.005% compound A ointment, day 20 of administration, rats except for the healed rats): 2.8 ± 1.5^ %
wound areas compared with the vehicle-administered group (0.005% compound A-administered group, from the day 4 of the administration): significantly smaller
wound areas compared with the vehicle-administered group (0.05% and 0.5% compound A-administered groups, from the day 5 of the administration): significantly smaller
Number of days required for healing (0.05% compound A ointment, n=10): 19.7 ± 1.1 days
wound area ratio (0.05% compound A ointment, day 1 of administration, n=10): 100.0 ± 0.0%
wound area ratio (0.05% compound A ointment, day 2 of administration, n=10): 115.0 ± 2.8%
wound area ratio (0.05% compound A ointment, day 3 of administration, n=10): 113.6 ± 3.5%
wound area ratio (0.05% compound A ointment, day 4 of administration, n=10): 104.9 ± 3.1%
wound area ratio (0.05% compound A ointment, day 5 of administration, n=10): 95.1 ± 3.7 %
wound area ratio (0.05% compound A ointment, day 6 of administration, n=10): 84.4 ± 2.8%
wound area ratio (0.05% compound A ointment, day 7 of administration, n=10): 73.5 ± 2.7 %
wound area ratio (0.05% compound A ointment, day 8 of administration, n=10): 63.4 ± 3.1 %
wound area ratio (0.05% compound A ointment, day 9 of administration, n=10): 49.8 ± 4.2 %
wound area ratio (0.05% compound A ointment, day 10 of administration, n=10): 41.6 ± 3.9 %
wound area ratio (0.05% compound A ointment, day 11 of administration, n=10): 31.2 ± 3.1 %
wound area ratio (0.05% compound A ointment, day 12 of administration, n=10): 22.3 ± 3.6 %
wound area ratio (0.05% compound A ointment, day 13 of administration, n=10): 16.4 ± 4.0 %
wound area ratio (0.05% compound A ointment, day 14 of administration, n=10): 12.1 ± 3.7 %
wound area ratio (0.05% compound A ointment, day 15 of administration, n=10): 8.6 ± 3.2 %
wound area ratio (0.05% compound A ointment, day 16 of administration, n=10): 7.5 ± 3.3 %
wound area ratio (0.05% compound A ointment, day 17 of administration, rats except for the healed rats): 6.7 ± 3.2 %
wound area ratio (0.05% compound A ointment, day 18 of administration, rats except for the healed rats): 7.8 ± 3.8^ %
wound area ratio (0.05% compound A ointment, day 19 of administration, rats except for the healed rats): 5.4 ± 2.9^ %
wound area ratio (0.05% compound A ointment, day 20 of administration, rats except for the healed rats): 5.4 ± 3.2^ %
Number of days required for healing (0.5% compound A ointment, n=10): 21.0 ± 1.2 days
wound area ratio (0.5% compound A ointment, day 1 of administration, n=10): 100.0 ± 0.0%
wound area ratio (0.5% compound A ointment, day 2 of administration, n=10): 119.6 ± 5.0%
wound area ratio (0.5% compound A ointment, day 3 of administration, n=10): 117.5 ± 5.0%
wound area ratio (0.5% compound A ointment, day 4 of administration, n=10): 109.5 ± 4.6%
wound area ratio (0.5% compound A ointment, day 5 of administration, n=10): 93.2 ± 4.3 %
wound area ratio (0.5% compound A ointment, day 6 of administration, n=10): 84.9 ± 4.3%
wound area ratio (0.5% compound A ointment, day 7 of administration, n=10): 77.0 ± 5.1%
wound area ratio (0.5% compound A ointment, day 8 of administration, n=10): 65.3 ± 4.4%
wound area ratio (0.5% compound A ointment, day 9 of administration, n=10): 56.0 ± 4.0%
wound area ratio (0.5% compound A ointment, day 10 of administration, n=10): 49.2 ± 3.9%
wound area ratio (0.5% compound A ointment, day 11 of administration, n=10): 39.7 ± 4.6%
wound area ratio (0.5% compound A ointment, day 12 of administration, n=10): 28.3 ± 3.4%
wound area ratio (0.5% compound A ointment, day 13 of administration, n=10): 19.6 ± 2.2 %
wound area ratio (0.5% compound A ointment, day 14 of administration, n=10): 15.5 ± 1.6 %
wound area ratio (0.5% compound A ointment, day 15 of administration, n=10): 8.0 ± 0.9 %
wound area ratio (0.5% compound A ointment, day 16 of administration, n=10): 5.6 ± 0.7 %
wound area ratio (0.5% compound A ointment, day 17 of administration, rats except for the healed rats): 3.7 ± 0.5 %
wound area ratio (0.5% compound A ointment, day 18 of administration, rats except for the healed rats): 2.2 ± 0.6 %
wound area ratio (0.5% compound A ointment, day 19 of administration, rats except for the healed rats): 2.2 ± 0.6 %
wound area ratio (0.5% compound A ointment, day 20 of administration, rats except for the healed rats): 1.6 ± 0.4 %
exacerbation of wounds (from the day 1 to day 3 of the administration, a tendency): suppressed
